# Laboratory results published in paper PMC11357990, “A first-in-class selective inhibitor of EGFR and PI3K offers a single-molecule approach to targeting adaptive resistance” (Nature Cancer, 2024).
# Key:
# [1] = molecular target: T1, PI3Kδ (Homo sapiens, UniProt O00329); assay: biochemical kinase assay at ATP Km apparent
# T1 construct: gene PIK3CD
# [2] = molecular target: PDE3A (h) (Homo sapiens, UniProt Q14432); design: Eurofins SafetyScreen 87 enzyme part: inhibition of control enzyme activity, single concentration; conditions: mean of 2, 10 µM, inhibitor
# [3] = molecular target: T2, cathepsin G (h) (Homo sapiens, UniProt P08311); design: Eurofins SafetyScreen 87 enzyme part: inhibition of control enzyme activity, single concentration; conditions: mean of 2, 10 µM, inhibitor
# T2 construct: gene CTSG
# [4] = molecular target: T3, 5-HT2A (h) (agonist radioligand) (Homo sapiens, UniProt P28223); assay: biochemical; design: Eurofins SafetyScreen 87 binding part: inhibition of control specific ligand binding, single concentration; conditions: read-out: Binding / ================================================= / % Inhibition of Control Specific Binding
# T3 construct: gene HTR2A
# [5] = molecular target: EGFR (Homo sapiens, UniProt P00533); assay: X-ray cocrystal structure ([…] Å); purified kinase assay IC50; assay type: biochemical; design: G696-G1022
# [6] = molecular target: PI3Kα (Homo sapiens, UniProt P42336); assay: biochemical kinase assay at ATP Km apparent; design: gene PIK3CA
# [7] = molecular target: T4, Potassium Channel hERG (human)- [3H] Dofetilide (Homo sapiens, UniProt Q12809); assay: in vitro
# T4 construct: gene KCNH2
# [8] = molecular target: T5, 5-HT2B (h) (agonist radioligand) (Homo sapiens, UniProt P41595); assay: biochemical; conditions: read-out: Binding / ================================================= / % Inhibition of Control Specific Binding
# T5 construct: gene HTR2B
# [9] = molecular target: T6, 5-HT2C (h) (antagonist radioligand) (Homo sapiens, UniProt P28335); assay: biochemical; conditions: read-out: Binding / ================================================= / % Inhibition of Control Specific Binding
# T6 construct: gene HTR2C
# [10] = molecular target: T7, 5-HT3 (h) (antagonist radioligand) (Homo sapiens, UniProt P46098); assay: biochemical; conditions: read-out: Binding / ================================================= / % Inhibition of Control Specific Binding
# T7 construct: gene HTR3A
# [11] = molecular target: T8, AT1 (h) (antagonist radioligand) (Homo sapiens, UniProt P30556); assay: biochemical; conditions: read-out: Binding / ================================================= / % Inhibition of Control Specific Binding
# T8 construct: gene AGTR1
# [12] = molecular target: T9, CB1 (h) (agonist radioligand) (Homo sapiens, UniProt P21554); assay: biochemical; conditions: read-out: Binding / ================================================= / % Inhibition of Control Specific Binding
# T9 construct: gene CNR1
# [13] = molecular target: T10, CB2 (h) (agonist radioligand) (Homo sapiens, UniProt P34972); assay: biochemical; conditions: read-out: Binding / ================================================= / % Inhibition of Control Specific Binding
# T10 construct: gene CNR2
# [14] = molecular target: CXCR2 (IL-8B) (h) (agonist radioligand) (Homo sapiens, UniProt P25025); assay: biochemical; conditions: read-out: Binding / ================================================= / % Inhibition of Control Specific Binding
# [15] = molecular target: T11, D1 (h) (antagonist radioligand) (Homo sapiens, UniProt P21728); assay: biochemical; conditions: read-out: Binding / ================================================= / % Inhibition of Control Specific Binding
# T11 construct: gene DRD1
# [16] = molecular target: T12, D2L (h) (antagonist radioligand) (Homo sapiens, UniProt P14416); assay: biochemical; conditions: read-out: Binding / ================================================= / % Inhibition of Control Specific Binding
# T12 construct: gene DRD2
# [17] = molecular target: T13, Estrogen ER alpha (h) (agonist radioligand) (Homo sapiens, UniProt P03372); assay: biochemical; conditions: read-out: Binding / ================================================= / % Inhibition of Control Specific Binding
# T13 construct: gene ESR1
# [18] = molecular target: T14, GABAB(1b) (h) (antagonist radioligand) (Homo sapiens, UniProt Q9UBS5); assay: biochemical; conditions: read-out: Binding / ================================================= / % Inhibition of Control Specific Binding
# T14 construct: gene GABBR1
# [19] = molecular target: T15, GR (h) (agonist radioligand) (Homo sapiens, UniProt P04150); assay: biochemical; conditions: read-out: Binding / ================================================= / % Inhibition of Control Specific Binding
# T15 construct: gene NR3C1
# [20] = molecular target: T16, H1 (h) (antagonist radioligand) (Homo sapiens, UniProt P35367); assay: biochemical; conditions: read-out: Binding / ================================================= / % Inhibition of Control Specific Binding
# T16 construct: gene HRH1
# [21] = molecular target: T17, MAO-A (antagonist radioligand) (Rattus norvegicus, UniProt P21396); assay: biochemical; conditions: read-out: Binding / ================================================= / % Inhibition of Control Specific Binding
# T17 construct: gene Maoa
# [22] = molecular target: T18, N muscle-type (h) (antagonist radioligand) (Homo sapiens, UniProt P02708+P07510+Q07001); assay: biochemical; conditions: read-out: Binding / ================================================= / % Inhibition of Control Specific Binding
# T18 construct: gene CHRNA1
# [23] = molecular target: T19, N neuronal alpha 4beta 2 (h) (agonist radioligand) (Homo sapiens, UniProt P17787+P43681); assay: biochemical; conditions: read-out: Binding / ================================================= / % Inhibition of Control Specific Binding
# T19 construct: gene CHRNB2
# [24] = molecular target: T20, PAF (h) (agonist radioligand) (Homo sapiens, UniProt P25105); assay: biochemical; conditions: read-out: Binding / ================================================= / % Inhibition of Control Specific Binding
# T20 construct: gene PTAFR
# [25] = molecular target: T21, PR (h) (agonist radioligand) (Homo sapiens, UniProt P06401); assay: biochemical; conditions: read-out: Binding / ================================================= / % Inhibition of Control Specific Binding
# T21 construct: gene PGR
# [26] = molecular target: T22, RARalpha (h) (agonist radioligand) (Homo sapiens, UniProt P10276); assay: biochemical; conditions: read-out: Binding / ================================================= / % Inhibition of Control Specific Binding
# T22 construct: gene RARA
# [27] = molecular target: T23, alpha 1A (h) (antagonist radioligand) (Homo sapiens, UniProt P35348); assay: biochemical; conditions: read-out: Binding / ================================================= / % Inhibition of Control Specific Binding
# T23 construct: gene ADRA1A
# [28] = molecular target: T24, alpha 2A (h) (antagonist radioligand) (Homo sapiens, UniProt P08913); assay: biochemical; conditions: read-out: Binding / ================================================= / % Inhibition of Control Specific Binding
# T24 construct: gene ADRA2A
# [29] = molecular target: T25, beta 2 (h) (antagonist radioligand) (Homo sapiens, UniProt P07550); assay: biochemical; conditions: read-out: Binding / ================================================= / % Inhibition of Control Specific Binding
# T25 construct: gene ADRB2
# [30] = molecular target: T26, dopamine transporter (h) (antagonist radioligand) (Homo sapiens, UniProt Q01959); assay: biochemical; conditions: read-out: Binding / ================================================= / % Inhibition of Control Specific Binding
# T26 construct: gene SLC6A3
# T20 sequence (P25105 whole entry): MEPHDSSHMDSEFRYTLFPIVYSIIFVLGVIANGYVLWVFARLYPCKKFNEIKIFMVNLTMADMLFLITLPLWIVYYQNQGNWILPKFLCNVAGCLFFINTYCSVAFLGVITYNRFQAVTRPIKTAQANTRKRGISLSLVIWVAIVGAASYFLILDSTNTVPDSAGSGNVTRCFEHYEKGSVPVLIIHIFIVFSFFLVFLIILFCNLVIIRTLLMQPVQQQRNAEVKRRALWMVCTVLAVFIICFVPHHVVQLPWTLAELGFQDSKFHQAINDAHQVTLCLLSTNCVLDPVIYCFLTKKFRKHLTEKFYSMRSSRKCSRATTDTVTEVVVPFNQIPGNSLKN
# T4 sequence (Q12809 whole entry): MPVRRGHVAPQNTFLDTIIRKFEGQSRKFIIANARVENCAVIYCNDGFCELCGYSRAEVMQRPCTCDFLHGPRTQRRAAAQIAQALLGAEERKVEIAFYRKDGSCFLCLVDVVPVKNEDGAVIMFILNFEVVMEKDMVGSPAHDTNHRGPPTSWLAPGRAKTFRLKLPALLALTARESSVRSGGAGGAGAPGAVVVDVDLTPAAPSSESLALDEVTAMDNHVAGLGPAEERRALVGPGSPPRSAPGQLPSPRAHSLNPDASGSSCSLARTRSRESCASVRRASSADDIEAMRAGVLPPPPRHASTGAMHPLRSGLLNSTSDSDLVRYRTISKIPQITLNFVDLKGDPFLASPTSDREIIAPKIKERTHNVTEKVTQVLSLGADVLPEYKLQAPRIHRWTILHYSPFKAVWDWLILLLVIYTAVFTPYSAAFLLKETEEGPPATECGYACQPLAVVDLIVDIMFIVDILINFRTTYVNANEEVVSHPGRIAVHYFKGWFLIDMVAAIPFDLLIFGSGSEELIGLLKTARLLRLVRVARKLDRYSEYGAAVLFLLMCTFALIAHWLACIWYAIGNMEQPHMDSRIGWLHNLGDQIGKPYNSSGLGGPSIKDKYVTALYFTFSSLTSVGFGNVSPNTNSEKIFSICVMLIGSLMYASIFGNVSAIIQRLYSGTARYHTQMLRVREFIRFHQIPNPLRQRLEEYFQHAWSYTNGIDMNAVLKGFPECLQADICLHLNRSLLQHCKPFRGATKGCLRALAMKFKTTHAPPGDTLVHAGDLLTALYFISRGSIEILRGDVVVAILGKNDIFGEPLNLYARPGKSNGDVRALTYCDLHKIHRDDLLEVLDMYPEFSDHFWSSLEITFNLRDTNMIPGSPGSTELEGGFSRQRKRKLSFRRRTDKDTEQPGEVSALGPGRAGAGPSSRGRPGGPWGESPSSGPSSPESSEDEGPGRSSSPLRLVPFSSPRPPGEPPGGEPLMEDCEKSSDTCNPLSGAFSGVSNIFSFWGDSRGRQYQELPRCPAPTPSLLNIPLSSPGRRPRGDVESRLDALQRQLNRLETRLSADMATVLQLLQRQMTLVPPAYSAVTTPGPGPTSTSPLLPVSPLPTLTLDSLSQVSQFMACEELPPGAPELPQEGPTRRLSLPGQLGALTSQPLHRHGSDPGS
# T11 sequence (P21728 whole entry): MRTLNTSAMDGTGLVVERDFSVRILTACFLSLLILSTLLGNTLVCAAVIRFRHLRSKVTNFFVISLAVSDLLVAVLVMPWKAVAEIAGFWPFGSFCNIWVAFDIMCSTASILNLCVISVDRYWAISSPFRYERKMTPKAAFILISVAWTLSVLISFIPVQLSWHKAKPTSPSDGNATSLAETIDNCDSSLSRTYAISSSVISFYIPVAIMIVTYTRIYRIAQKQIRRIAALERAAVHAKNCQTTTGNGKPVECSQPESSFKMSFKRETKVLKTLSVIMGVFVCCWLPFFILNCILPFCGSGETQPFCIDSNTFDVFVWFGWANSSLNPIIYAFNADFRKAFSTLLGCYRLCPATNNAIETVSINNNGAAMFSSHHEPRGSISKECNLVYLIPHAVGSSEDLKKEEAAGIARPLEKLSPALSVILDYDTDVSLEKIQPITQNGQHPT
# T5 sequence (P41595 whole entry): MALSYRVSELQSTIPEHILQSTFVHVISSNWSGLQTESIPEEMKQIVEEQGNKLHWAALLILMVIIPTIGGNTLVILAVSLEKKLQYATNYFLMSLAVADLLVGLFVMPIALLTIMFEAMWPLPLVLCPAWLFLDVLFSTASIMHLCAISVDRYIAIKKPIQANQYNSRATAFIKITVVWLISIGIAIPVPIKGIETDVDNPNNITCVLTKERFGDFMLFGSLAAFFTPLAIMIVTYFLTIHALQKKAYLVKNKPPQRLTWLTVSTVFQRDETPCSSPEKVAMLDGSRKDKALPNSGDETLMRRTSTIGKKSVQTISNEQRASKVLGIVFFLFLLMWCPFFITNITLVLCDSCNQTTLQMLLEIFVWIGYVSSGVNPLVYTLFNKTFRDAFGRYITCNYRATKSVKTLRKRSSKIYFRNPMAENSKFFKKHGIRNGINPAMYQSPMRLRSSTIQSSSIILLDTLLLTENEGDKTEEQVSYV
# T13 sequence (P03372 whole entry): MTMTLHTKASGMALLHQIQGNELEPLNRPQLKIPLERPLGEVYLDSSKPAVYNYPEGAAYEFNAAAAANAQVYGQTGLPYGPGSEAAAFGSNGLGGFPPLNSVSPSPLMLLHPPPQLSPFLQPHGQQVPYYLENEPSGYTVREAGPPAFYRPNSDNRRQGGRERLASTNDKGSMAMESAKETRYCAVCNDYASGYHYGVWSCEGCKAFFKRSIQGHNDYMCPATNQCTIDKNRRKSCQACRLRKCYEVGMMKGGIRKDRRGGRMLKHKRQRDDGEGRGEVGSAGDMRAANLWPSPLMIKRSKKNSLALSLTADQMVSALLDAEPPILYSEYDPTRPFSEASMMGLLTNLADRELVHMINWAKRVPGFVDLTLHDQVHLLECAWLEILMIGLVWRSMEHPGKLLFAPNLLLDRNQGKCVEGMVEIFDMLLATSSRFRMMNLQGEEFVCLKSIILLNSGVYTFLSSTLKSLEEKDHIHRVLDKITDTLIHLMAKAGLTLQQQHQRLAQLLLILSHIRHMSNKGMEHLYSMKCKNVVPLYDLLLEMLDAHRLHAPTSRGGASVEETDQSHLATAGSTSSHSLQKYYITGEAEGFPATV
# T12 sequence (P14416 whole entry): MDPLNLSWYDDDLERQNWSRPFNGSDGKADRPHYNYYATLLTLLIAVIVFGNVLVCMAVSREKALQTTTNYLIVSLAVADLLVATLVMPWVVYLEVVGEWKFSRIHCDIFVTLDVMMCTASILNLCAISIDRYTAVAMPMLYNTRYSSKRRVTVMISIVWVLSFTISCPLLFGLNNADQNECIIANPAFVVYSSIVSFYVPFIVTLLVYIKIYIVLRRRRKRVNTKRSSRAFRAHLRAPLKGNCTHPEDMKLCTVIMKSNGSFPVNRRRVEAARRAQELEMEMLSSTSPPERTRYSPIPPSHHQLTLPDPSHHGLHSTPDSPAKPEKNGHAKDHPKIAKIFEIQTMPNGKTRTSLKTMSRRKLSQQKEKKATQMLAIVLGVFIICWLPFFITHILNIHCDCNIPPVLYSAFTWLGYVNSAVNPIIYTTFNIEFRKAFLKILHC
# PI3Kα, sequence (P42336 whole entry): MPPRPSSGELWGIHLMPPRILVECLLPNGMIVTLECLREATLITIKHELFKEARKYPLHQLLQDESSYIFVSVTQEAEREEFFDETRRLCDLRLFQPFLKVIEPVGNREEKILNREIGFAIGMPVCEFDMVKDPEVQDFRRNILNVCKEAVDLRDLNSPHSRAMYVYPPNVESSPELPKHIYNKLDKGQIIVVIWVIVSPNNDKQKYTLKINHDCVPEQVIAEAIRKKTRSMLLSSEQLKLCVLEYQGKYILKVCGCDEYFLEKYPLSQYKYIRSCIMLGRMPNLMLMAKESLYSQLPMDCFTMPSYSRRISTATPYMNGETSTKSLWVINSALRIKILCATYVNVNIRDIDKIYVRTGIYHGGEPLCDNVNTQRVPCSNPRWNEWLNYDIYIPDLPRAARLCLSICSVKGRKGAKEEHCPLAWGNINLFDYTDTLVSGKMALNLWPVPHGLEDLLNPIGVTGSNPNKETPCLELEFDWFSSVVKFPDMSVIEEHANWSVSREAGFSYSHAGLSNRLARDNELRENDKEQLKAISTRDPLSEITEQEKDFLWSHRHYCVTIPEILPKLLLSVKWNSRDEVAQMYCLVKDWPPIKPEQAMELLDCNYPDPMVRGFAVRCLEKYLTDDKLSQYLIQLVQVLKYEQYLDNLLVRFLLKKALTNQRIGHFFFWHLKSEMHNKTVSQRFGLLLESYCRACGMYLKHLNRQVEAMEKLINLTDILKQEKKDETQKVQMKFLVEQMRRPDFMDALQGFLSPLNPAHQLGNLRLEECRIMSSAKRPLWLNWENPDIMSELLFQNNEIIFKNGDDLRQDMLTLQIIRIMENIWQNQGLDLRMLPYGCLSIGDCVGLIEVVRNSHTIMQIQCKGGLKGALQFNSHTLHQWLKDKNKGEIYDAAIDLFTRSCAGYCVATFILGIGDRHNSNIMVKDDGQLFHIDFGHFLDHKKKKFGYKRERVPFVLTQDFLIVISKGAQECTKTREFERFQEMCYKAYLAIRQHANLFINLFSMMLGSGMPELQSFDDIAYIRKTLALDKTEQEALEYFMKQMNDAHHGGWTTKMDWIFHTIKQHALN
# T9 sequence (P21554 whole entry): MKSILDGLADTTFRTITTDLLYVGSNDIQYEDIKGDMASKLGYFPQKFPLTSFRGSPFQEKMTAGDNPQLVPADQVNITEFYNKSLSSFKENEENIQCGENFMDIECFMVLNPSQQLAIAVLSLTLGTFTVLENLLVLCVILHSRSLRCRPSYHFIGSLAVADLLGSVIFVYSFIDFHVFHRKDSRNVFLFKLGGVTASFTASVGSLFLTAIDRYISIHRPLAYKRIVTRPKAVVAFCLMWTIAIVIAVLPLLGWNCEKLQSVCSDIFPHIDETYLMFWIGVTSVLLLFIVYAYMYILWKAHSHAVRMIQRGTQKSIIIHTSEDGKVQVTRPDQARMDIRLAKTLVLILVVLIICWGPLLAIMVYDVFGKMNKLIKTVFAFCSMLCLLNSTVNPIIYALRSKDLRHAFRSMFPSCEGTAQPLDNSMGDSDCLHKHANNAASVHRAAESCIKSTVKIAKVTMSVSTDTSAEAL
structure (smiles),measurement,setting,value
"C[C@@H](Nc1ncnc2ccc(-c3cnc(Cl)c(NS(C)(=O)=O)c3)cc12)c1ccccc1 [MTX-531, (R)-N-(2-chloro-5-(4-((1-phenylethyl)amino)quinazolin-6-yl)pyridin-3-yl)methane-sulfonamide]",IC50,[1],1.1 nM
same,% inhibition of control enzyme activity,[2],29%
same,% inhibition of control enzyme activity,[3],26%
same,inhibition at 10 µM,[4],-5%
same,IC50,[5],14.7 nM
same,IC50,[6],6.4 nM
same,inhibition at 10 µM,[7],51%
same,inhibition at 10 µM,[8],2%
same,inhibition at 10 µM,[9],4%
same,inhibition at 10 µM,[10],10%
same,inhibition at 10 µM,[11],4%
same,inhibition at 10 µM,[12],-2%
same,inhibition at 10 µM,[13],39%
same,inhibition at 10 µM,[14],4%
same,inhibition at 10 µM,[15],2%
same,inhibition at 10 µM,[16],-17%
same,inhibition at 10 µM,[17],6%
same,inhibition at 10 µM,[18],-3%
same,inhibition at 10 µM,[19],3%
same,inhibition at 10 µM,[20],-7%
same,inhibition at 10 µM,[21],8%
same,inhibition at 10 µM,[22],6%
same,inhibition at 10 µM,[23],-8%
same,inhibition at 10 µM,[24],1%
same,inhibition at 10 µM,[25],-14%
same,inhibition at 10 µM,[26],4%
same,inhibition at 10 µM,[27],9%
same,inhibition at 10 µM,[28],5%
same,inhibition at 10 µM,[29],-6%
same,inhibition at 10 µM,[30],12%
